Legend:
Type in all cases: functional
Conditions in all cases: read-out: ED50 (the source's name)
A549 = experiment: Cytotoxicity against human A549 cells
SK-OV-3 = experiment: Cytotoxicity against human SK-OV-3 cells
HCT-15 = experiment: Cytotoxicity against human HCT15 cells
SK-MEL-2 = experiment: Cytotoxicity against human SK-MEL-2 cells
XF498 = experiment: Cytotoxicity against human XF498 cells

Measured: EC50

CCCCCCC/C=C/C=C/CC/C=C/[C@@H](O)[C@H](CO[C@@H]1O[C@H](CO)[C@@H](O)[C@H](O)[C@H]1O)NC(=O)[C@H](O)CCCCCCCCCCCCCCCCCCCCCC [RENIEROSIDE A5]
> 10 µg/mL: all assays above

CCCCCCC/C=C/C=C/CC/C=C/[C@@H](O)[C@H](CO[C@@H]1O[C@H](CO)[C@@H](O)[C@H](O)[C@H]1O)NC(=O)[C@H](O)CCCCCCCCCCCCC/C=C\CCCCCCCC [RENIEROSIDE A3]
> 10 µg/mL: all assays above

CCCCCCC/C=C/C(C)=C/CC/C=C/[C@@H](O)[C@H](CO[C@@H]1O[C@H](CO)[C@@H](O)[C@H](O)[C@H]1O)NC(=O)[C@H](O)CCCCCCCCCCCCCC/C=C\CCCCCCCC [RENIEROSIDE B2]
> 10 µg/mL: all assays above

CCCCCC/C=C\CCCCCCCCCCCCCCCCC[C@@H](O)C(=O)N[C@@H](CO[C@@H]1O[C@H](CO)[C@@H](O)[C@H](O)[C@H]1O)[C@H](O)/C=C/CC/C=C(C)/C=C/CCCCCCC [RENIEROSIDE B3]
> 10 µg/mL: all assays above

CCCCCCC/C=C/C=C/CC/C=C/[C@@H](O)[C@H](CO[C@@H]1O[C@H](CO)[C@@H](O)[C@H](O)[C@H]1O)NC(=O)[C@H](O)CCCCCCCCCCCCCCCCCCCC [RENIEROSIDE A4]
> 10 µg/mL: all assays above

CCCCCC/C=C\CCCCCCCCCCCCCCCCCC[C@@H](O)C(=O)N[C@@H](CO[C@@H]1O[C@H](CO)[C@@H](O)[C@H](O)[C@H]1O)[C@H](O)/C=C/CC/C=C/C=C/CCCCCCC [RENIEROSIDE A1]
> 10 µg/mL: all assays above

CCCCCCC/C=C/C=C/CC/C=C/[C@@H](O)[C@H](CO[C@@H]1O[C@H](CO)[C@@H](O)[C@H](O)[C@H]1O)NC(=O)[C@H](O)CCCCCCCCCCCCCC/C=C\CCCCCCCC [RENIEROSIDE A2]
> 10 µg/mL: all assays above

CCCCCC/C=C\CCCCCCCCCCCCCCCCCC[C@@H](O)C(=O)N[C@@H](CO[C@@H]1O[C@H](CO)[C@@H](O)[C@H](O)[C@H]1O)[C@H](O)/C=C/CC/C=C(C)/C=C/CCCCCCC [RENIEROSIDE B1]
> 10 µg/mL: all assays above

Source: ChEMBL document CHEMBL1141294, “Renierosides, cerebrosides from a marine sponge Haliclona (Reniera) sp” (2007)
